pIC50: −log10 of the molar value. Read-outs that look alike come from different tables or passages of the source.
Key:
[1] = system: SR; experiment: SRB growth screen, leukemia SR; conditions: Homo sapiens, 48 h; for CC50: read-out: Log10 LC50 (converted)
[2] = system: K-562; experiment: SRB growth screen, leukemia K-562; conditions: Homo sapiens, K562, 48 h; for CC50: read-out: Log10 LC50 (converted); for IC (TGI): read-out: Log10 TGI
[3] = system: MOLT-4; experiment: SRB growth screen, leukemia MOLT-4; conditions: Homo sapiens, MOLT-4, 48 h; for CC50: read-out: Log10 LC50 (converted); for IC (TGI): read-out: Log10 TGI
[4] = system: CCRF-CEM; experiment: SRB growth screen, leukemia CCRF-CEM; conditions: Homo sapiens
[5] = system: HT29; experiment: SRB growth screen, colon cancer HT29; conditions: Homo sapiens, HT-29, 48 h; for GI50: read-out: Log10 GI50 (converted); for CC50: read-out: Log10 LC50 (converted)
[6] = system: SF-539; experiment: SRB growth screen, CNS cancer SF-539; conditions: Homo sapiens, SF-539, 48 h; for CC50: read-out: Log10 LC50 (converted)
[7] = system: SNB-19; experiment: SRB growth screen, CNS cancer SNB-19; conditions: Homo sapiens, SNB-19, 48 h; for CC50: read-out: Log10 LC50 (converted); for IC (TGI): read-out: Log10 TGI
[8] = system: LOX-IMVI; experiment: SRB growth screen, melanoma LOX-IMVI; conditions: Homo sapiens, 48 h; for CC50: read-out: Log10 LC50 (converted); for IC (TGI): read-out: Log10 TGI
[9] = system: HL-60(TB); experiment: SRB growth screen, leukemia HL-60(TB); conditions: Homo sapiens, HL-60, 48 h; for CC50: read-out: Log10 LC50 (converted); for IC (TGI): read-out: Log10 TGI
[10] = system: RPMI-8226; experiment: SRB growth screen, leukemia RPMI-8226; conditions: Homo sapiens, RPMI-8226, 48 h; for CC50: read-out: Log10 LC50 (converted)
[11] = system: TK-10; experiment: SRB growth screen, renal cancer TK-10; conditions: Homo sapiens, TK-10, 48 h; for CC50: read-out: Log10 LC50 (converted); for IC (TGI): read-out: Log10 TGI
[12] = system: UO-31; experiment: SRB growth screen, renal cancer UO-31; conditions: Homo sapiens, UO-31, 48 h; for CC50: read-out: Log10 LC50 (converted); for IC (TGI): read-out: Log10 TGI
[13] = system: HCT-15; experiment: SRB growth screen, colon cancer HCT-15; conditions: Homo sapiens, HCT-15, 48 h; for GI50: read-out: Log10 GI50 (converted); for CC50: read-out: Log10 LC50 (converted); for IC (TGI): read-out: Log10 TGI
[14] = system: MDA-N; experiment: SRB growth screen, breast cancer MDA-N; conditions: Homo sapiens, 48 h; for GI50: read-out: Log10 GI50 (converted)
[15] = system: T-47D; experiment: SRB growth screen, breast cancer T-47D; conditions: Homo sapiens, T47D, 48 h; for GI50: read-out: Log10 GI50 (converted); for CC50: read-out: Log10 LC50 (converted)
[16] = system: HCT-116; experiment: SRB growth screen, colon cancer HCT-116; conditions: Homo sapiens, HCT-116, 48 h; for GI50: read-out: Log10 GI50 (converted); for CC50: read-out: Log10 LC50 (converted)
[17] = system: RXF-393; experiment: SRB growth screen, renal cancer RXF-393; conditions: Homo sapiens, RXF 393, 48 h; for CC50: read-out: Log10 LC50 (converted); for IC (TGI): read-out: Log10 TGI
[18] = system: PC-3; experiment: SRB growth screen, prostate cancer PC-3; conditions: Homo sapiens, PC-3, 48 h; for CC50: read-out: Log10 LC50 (converted); for IC (TGI): read-out: Log10 TGI
[19] = system: COLO 205; experiment: SRB growth screen, colon cancer COLO 205; conditions: Homo sapiens, COLO 205, 48 h; for CC50: read-out: Log10 LC50 (converted)
[20] = system: OVCAR-3; experiment: SRB growth screen, ovarian cancer OVCAR-3; conditions: Homo sapiens, OVCAR-3, 48 h; for CC50: read-out: Log10 LC50 (converted); for IC (TGI): read-out: Log10 TGI
[21] = system: DU-145; experiment: SRB growth screen, prostate cancer DU-145; conditions: Homo sapiens, DU-145, 48 h; for CC50: read-out: Log10 LC50 (converted); for IC (TGI): read-out: Log10 TGI
[22] = system: MDA-MB-231/ATCC; experiment: SRB growth screen, breast cancer MDA-MB-231/ATCC; conditions: Homo sapiens, MDA-MB-231, 48 h; for CC50: read-out: Log10 LC50 (converted)
[23] = system: HOP-62; conditions: Homo sapiens, HOP-62, 48 h; for CC50: read-out: Log10 LC50 (converted)
[24] = system: NCI-H522; conditions: Homo sapiens, NCI-H522, 48 h; for GI50: read-out: Log10 GI50 (converted); for IC (TGI): read-out: Log10 TGI
[25] = read-out: Log10 GI50 (converted)
[26] = 48 h, read-out: Log10 LC50 (converted)
[27] = read-out: concentration considered cytostasis (percentage growth 0)
[28] = read-out: concentration necessary to achieve primary growth inhibition (PG +50)
[29] = read-out: cytotoxicity concentration (percentage growth -50)
[30] = read-out: Log10 LC50 (converted)

CC(=O)O[C@H]1C(=O)[C@@]2(C)[C@H]([C@H](OC(=O)c3ccccc3)[C@]3(O)C[C@H](OC(=O)[C@H](O)[C@@H](NC(=O)C4(C)OC4C)c4ccccc4)C(C)=C1C3(C)C)[C@]1(OC(C)=O)CO[C@@H]1C[C@@H]2O (stereo partly shown) [Ceph-epoxide, cephalomannine epoxide] gave a GI50 [1, 25] of under 0.01 µM, a CC50 [1] of over 100 µM and a GI50 [2, 25] of under 0.01 µM. For the same compound, the CC50 [2] was over 100 µM, the IC (TGI) [2] was over 100 µM and the GI50 [3, 25] was under 0.01 µM. For the same compound, the CC50 [3] was over 100 µM, the IC (TGI) [3] was over 100 µM and the GI50 ([4]; 48 h, read-out: Log10 GI50 (converted)) was under 0.01 µM. It also gave a CC50 [4, 26] of over 100 µM, an IC (TGI) ([4]; 48 h, read-out: Log10 TGI) of 2.51 µM and an IC (TGI) [4, 27] of 2.51 µM. It also gave a pIC50 [4, 28] of over 8.00, a CC50 [4, 29] of over 100 µM and a GI50 [5] of under 10 nM. The CC50 [5] was over 100 µM, the IC (TGI) ([5]; read-out: Log10 TGI) was 0.115 µM and the GI50 [6, 25] was under 0.01 µM. It also gave a CC50 [6] of 0.0407 µM, an IC (TGI) ([6]; read-out: Log10 TGI) of under 0.01 µM and a GI50 [7, 25] of 0.0257 µM. The CC50 [7] was over 100 µM, the IC (TGI) [7] was over 100 µM and the GI50 [8, 25] was under 0.01 µM. For the same compound, the CC50 [8] was over 100 µM, the IC (TGI) [8] was 21.4 µM and the GI50 [9, 25] was under 0.01 µM. The CC50 [9] was over 100 µM, the IC (TGI) [9] was under 0.01 µM and the CC50 [10] was over 100 µM. It also gave a GI50 [11, 25] of 0.0646 µM, a CC50 [11] of over 100 µM and an IC (TGI) [11] of over 100 µM. It also gave a GI50 [12, 25] of 2 µM, a CC50 [12] of over 100 µM and an IC (TGI) [12] of over 100 µM. For the same compound, the GI50 [13] was 0.603 µM, the CC50 [13] was over 100 µM and the IC (TGI) [13] was over 100 µM. For the same compound, the GI50 [14] was under 10 nM, the CC50 [14, 30] was under 0.01 µM and the IC (TGI) ([14]; read-out: Log10 TGI) was under 0.01 µM. It also gave a GI50 [15] of 15.5 µM, a CC50 [15] of over 100 µM and an IC (TGI) ([15]; read-out: Log10 TGI) of over 100 µM. The GI50 [16] was under 10 nM, the CC50 [16] was over 100 µM and the GI50 [17, 25] was 0.214 µM. The CC50 [17] was over 100 µM, the IC (TGI) [17] was over 100 µM and the GI50 [18, 25] was 0.0112 µM. For the same compound, the CC50 [18] was over 100 µM, the IC (TGI) [18] was over 100 µM and the GI50 [19, 25] was under 0.01 µM. The CC50 [19] was 0.603 µM, the IC (TGI) ([19]; read-out: Log10 TGI) was 0.0269 µM and the GI50 [20, 25] was under 0.01 µM. The CC50 [20] was over 100 µM, the IC (TGI) [20] was 0.0182 µM and the GI50 [21, 25] was 0.0263 µM. For the same compound, the CC50 [21] was over 100 µM, the IC (TGI) [21] was 0.145 µM and the GI50 [22, 25] was 0.0182 µM. For the same compound, the CC50 [22] was over 100 µM, the GI50 [23, 25] was 0.0245 µM and the CC50 [23] was over 100 µM. For the same compound, the GI50 [24] was under 10 nM and the IC (TGI) [24] was 33.1 nM.

Work on CC(=O)O[C@H]1C(=O)[C@@]2(C)[C@H]([C@H](OC(=O)c3ccccc3)[C@]3(O)C[C@H](OC(=O)[C@H](O)[C@@H](NC(=O)c4ccccc4)c4ccccc4)C(C)=C1C3(C)C)[C@]1(OC(C)=O)CO[C@@H]1C[C@@H]2O [Paclitaxel, paclitaxel, reference compound] yielded a CC50 [1] of over 100 µM, an IC (TGI) ([1]; read-out: Log10 TGI) of over 100 µM and a CC50 [2] of over 100 µM. The IC (TGI) [2] was over 100 µM, the CC50 [3] was over 100 µM and the IC (TGI) [3] was over 100 µM. For the same compound, the CC50 [4, 26] was over 100 µM, the IC (TGI) ([4]; 48 h, read-out: Log10 TGI) was over 100 µM and the pIC50 ([4]; read-out: concentration at which primary growth inhibition occurs (PG +50)) was 11.61. For the same compound, the IC (TGI) [4, 27] was over 100 µM, the pIC50 [4, 28] was over 8.00 and the CC50 [4, 29] was over 100 µM. The GI50 [5] was under 0.0001 nM, the CC50 [5] was 40.7 µM and the CC50 [6] was over 100 µM. The CC50 [7] was over 100 µM, the IC (TGI) [7] was over 100 µM and the CC50 [8] was over 70.8 µM. The IC (TGI) [8] was 22.4 µM, the CC50 [9] was over 100 µM and the IC (TGI) [9] was over 29.5 µM. For the same compound, the GI50 [10, 25] was under 0.1 pM, the CC50 [10] was over 100 µM and the IC (TGI) ([10]; read-out: Log10 TGI) was over 100 µM. It also gave a CC50 [11] of over 100 µM, an IC (TGI) [11] of over 100 µM and a CC50 [12] of over 100 µM. For the same compound, the IC (TGI) [12] was 51.3 µM, the GI50 [13] was 0.427 µM and the CC50 [13] was over 100 µM. The IC (TGI) [13] was over 100 µM, the GI50 [14] was under 0.0001 nM and the GI50 [15] was 0.000155 µM. For the same compound, the CC50 [15] was over 100 µM, the GI50 [16] was under 0.0001 nM and the CC50 [16] was over 100 µM. The IC (TGI) ([16]; read-out: Log10 TGI) was 15.1 µM, the CC50 [17] was 35.5 µM and the IC (TGI) [17] was 12.6 µM. For the same compound, the CC50 [18] was over 100 µM, the IC (TGI) [18] was over 100 µM and the CC50 [19] was over 38.9 µM. It also gave a CC50 [20] of over 100 µM, an IC (TGI) [20] of 28.2 µM and a CC50 [21] of over 100 µM. It also gave an IC (TGI) [21] of over 100 µM, a CC50 [22] of 51.3 µM and an IC (TGI) ([22]; read-out: Log10 TGI) of 14.5 µM. For the same compound, the CC50 [23] was 79.4 µM, the IC (TGI) ([23]; read-out: Log10 TGI) was 15.8 µM and the GI50 [24] was under 0.0001 nM. The CC50 [24, 30] was over 100 µM and the IC (TGI) [24] was 0.00631 nM.
